Read-outs that look alike come from different tables or passages of the source. Starred links: 1 amine or outer side, 2 acyl side, 3 side chain; linkers in the order of their positions; H or OH if unused. Non-standard residues stand in square brackets, D forms with d. Residues, ends and D or L forms follow the SMILES beside them. *: point of attachment. Exatecan = CC[C@@]1(O)C(=O)OCc2c1cc1n(c2=O)Cc2c-1nc1cc(F)c(C)c3c1c2[C@@H](N*)CC3; Hexanoyl(6-maleimido) = O=C1C=CC(=O)N1CCCCCC(=O)*; NHCH2OCH2CO = O=C(COCN[*:1])[*:2]
Tests used:
cathepsin B = cathepsin B (Homo sapiens, UniProt P07858); test: In vitro enzyme cleavage experiment of linker-drug conjugates; assay type: in vitro ADME; conditions: pH 5.0 to pH 7.0
Method: Linker-drug conjugates (LE14 and GGFG-Dxd) and cathepsin B were incubated in three different pH (5.0, 6.0, 7.0) buffers, and samples were taken at different time points into the high performance liquid chromatography-mass spectrometer. The release percentage of the drug was determined by external standard method (with Dxd as the external standard).

anti-B7-H3 antibody P2E5 = test: Coupling of linker-drug conjugates with P2E5; assay type: physicochemical; conditions: coupling with P2E5, highest DAR (excessive coupling)
Method: (§1) The anti-B7-H3 antibody P2E5, anti-Claudin18.2 antibody IMAB362, and anti-HER2 antibody Trastuzumab (concentration was 15 mg/mL) were replaced into 50 mM PB/1.0 mM EDTA buffer (pH 7.0) by a G25 desalting column, respectively. 12 equivalents of TECP was added and the mixture was stirred at 37° C. for 2 hours to fully open the disulfide bonds between the antibody chains. Then phosphoric acid was used to adjust the pH of the reduced antibody solution to 6.0, and the temperature of the water bath was lowered to 25° C. for coupling reaction. […] After the reaction was completed, the sample was filtered with a 0.22 μm membrane. Uncoupled small molecules were purified and removed by a tangential flow ultrafiltration system. The buffer was 50 mM PB/1.0 mM EDTA solution (pH 6.0). After purification, sucrose (final concentration was 6%) was added, and the mixture was stored in a refrigerator at −20° C. The UV method was used to measure the absorbance values at 280 nm and 370 nm respectively, and the DAR value was calculated.

[1] = test system: anti-Claudin18.2 antibody IMAB362; test: Coupling of linker-drug conjugates with IMAB362; assay type: physicochemical; conditions: coupling with IMAB362, highest DAR (excessive coupling)
Method: as §1

[2] = test system: anti-HER2 antibody Trastuzumab; test: Coupling of linker-drug conjugates with Trastuzumab; assay type: physicochemical; conditions: highest DAR (excessive coupling)
Method: as §1

other antibodies = test: Coupling of linker-drug conjugates with other / different antibodies; assay type: physicochemical; conditions: coupled with other / different antibodies
NCI-N87 cell line = test: Killing activity on NCI-N87 before and after enzyme cleavage by cathepsin B system; assay type: cell-based, human; conditions: NCI-N87, 144 hours
Description: The NCI-N87 cell line was selected as the experimental cell line.

Structure (SMILES) | Enzyme cleavage speed (in words) (cathepsin B) | Ratio of aggregates (anti-B7-H3 antibody P2E5) [%] | Whether precipitation (anti-B7-H3 antibody P2E5) | Ratio of aggregates [1] [%] | Whether precipitation [1] | Ratio of aggregates [2] [%] | Whether precipitation [2] | Precipitation (in words) (other antibodies) | Ratio of aggregates (in words) (other antibodies) | IC50 (NCI-N87 cell line; after cathepsin B system pH 5.0, 37° C., 4 hours, read-out: IC50 (Based on SN-38 equivalent), After enzyme cleavage) [nM] | IC50 (NCI-N87 cell line; before cathepsin B cleavage, read-out: IC50 (Based on SN-38 equivalent), Before enzyme cleavage) [nM]
CC[C@@]1(O)C(=O)OCc2c1cc1n(c2=O)Cc2c-1nc1cc(F)c(C)c3c1c2[C@@H](NC(=O)COCNC(=O)CNC(=O)[C@H](Cc1ccccc1)NC(=O)CNC(=O)CNC(=O)CCCCCN1C(=O)C=CC1=O)CC3 [GGFG-Dxd, reference compound] ({Hexanoyl(6-maleimido)}-GGFG[NHCH2OCH2CO]-Exatecan) | slower enzyme cleavage speed | 20 | produced precipitation | 35 | produced precipitation | 0.1 | did not produce precipitation and No | precipitation would be produced | high | – | –
CC[C@@]1(O)C(=O)OC(=O)C2=C1C=C1c3nc4cc(F)c(C)c5c4c(c3CN1C2)[C@@H](NC(=O)COCN(CCS(C)(=O)=O)C(=O)OCc1ccc(NC(=O)[C@H](C)NC(=O)[C@@H](NC(=O)CCCCCN2C(=O)C=CC2=O)C(C)C)cc1)CC5 [LE14] | could quickly cleave | 1.3 | No | 2.5 | No | 0.3 | No | – | – | – | –
CC[C@@]1(O)C(=O)OCc2c1cc1n(c2=O)Cc2c-1nc1cc(F)c(C)c3c1c2[C@@H](NC(=O)COCNC(=O)CNC(=O)[C@H](Cc1ccccc1)NC(=O)[C@H](C)NC(=O)[C@@H](NC(=O)CCCCCN1C(=O)C=CC1=O)C(C)C)CC3 [LE23] ({Hexanoyl(6-maleimido)}-VAFG[NHCH2OCH2CO]-Exatecan) | – | 1.9 | No | 1.6 | No | 0.1 | No | – | – | – | –
CC[C@@]1(O)C(=O)OCc2c1cc1n(c2=O)Cc2c-1nc1cc(F)c(C)c3c1c2[C@@H](NC(=O)COCNC(=O)CNC(=O)[C@H](Cc1ccccc1)NC(=O)[C@H](CS)NC(=O)[C@@H](NC(=O)CCCCCN1C(=O)C=CC1=O)C(C)C)CC3 [LE24] ({Hexanoyl(6-maleimido)}-VCFG[NHCH2OCH2CO]-Exatecan) | – | 1.2 | No | 2.0 | No | 0.1 | No | – | – | – | –
CCc1c2c(nc3ccc(O)cc13)-c1cc3c(c(=O)n1C2)COC(=O)[C@]3(O)CC [SN38, 7-ethyl-10-hydroxycamptothecin] | – | – | – | – | – | – | – | – | – | 6.85 | 6.47

Source: patent US20220233708A1, “ANTIBODY-DRUG CONJUGATE, INTERMEDIATE THEREOF, PREPARATION METHOD THEREFOR AND APPLICATION THEREOF” (priority 2019, published 2022)
